Test results taken from patent publication US4558007A, “Process for detecting LDHk isozyme activity in human serum for use as a diagnostic aid and for monitoring response to cancer therapy” (Health Research, Inc. (Roswell Park Divison), priority 1983, dated 1985).

Legend:
LDHk [1] = conditions: background description of the isozyme; cited from earlier work
human serum LDHk = experiment: Inhibition of serum LDHk (gel lanes stained in presence of inhibitor); type: biochemical; conditions: 3×10^-5 M in staining mixture, 4 1/2 hours
Method: A reverse polarity gel system was used to isolate the LDHk isozyme which has a positive charge at pH 8.9 and migrates towards the cathode. The gel system was based on an imidazole/borate buffer system. The samples were analyzed on 3 mm thick, 20 well, 5.5% polyacrylamide slab gels photopolymerized with a riboflavin catalyst in the absence of persulfate. The gels were cast with a 0.15M potassium tetraborate buffer at pH 8.3. The lower reservoir buffer was 0.10M potassium tetraborate, pH 8.3, and the upper reservoir buffer contained 0.08M imidazole and 0.02M boric acid, pH 8.9. Gels were run an average of 16 hours at a voltage of 220 V, with cooling provided by circulating ice water.
Staining was done using the nitroblue tetrazolium/phenazine methosulfate composition of Dietz and Lubrano as described previously using 1M Tris buffer, pH 8.0. The staining mixture was supplemented with 2% glycerol to complex with the borate ions. These gels were stained in the dar at a temperature of about 37° C. for 41/2 hours in an Ehrlenmeyer suction flask under a nitrogen atmosphere. After staining, the gels were fixed, scanned to measure the amount of stain, and stored as described above.
An inhibition experiment was conducted on the serum LDHk. […]

LDHk [2] = experiment: Inhibition of LDHk by dinucleoside tetraphosphates; type: biochemical; conditions: for Mode of inhibition of LDHk versus NAD+: competition with NAD+; for Ki: property shared by LDHk from cells transformed by Ki-MSV, human tumors, human liver, rat retina
[3] = tested on: LDHk detected in human tumor tissues; conditions: Anderson et al. 1981 study of human carcinomas; cited from earlier work

| SMILES | Inhibition of LDHk (LDHk [1]) | Inhibition of human serum LDHk activity (human serum LDHk) | Mode of inhibition of LDHk versus NAD+ (LDHk [2]) | Ki (LDHk [2]) [µM] | Inhibition of LDHk of human tumor tissues [3] |
| --- | --- | --- | --- | --- | --- |
| Nc1ncnc2c1ncn2[C@@H]1O[C@H](COP(=O)(O)OP(=O)(O)OP(=O)(O)OP(=O)(O)OC[C@H]2O[C@@H](n3cnc4c(N)ncnc43)[C@H](O)[C@@H]2O)[C@@H](O)[C@H]1O [diadenosine tetraphosphate, 5',5' diadenosine tetraphosphate] | more strongly | not inhibited | not competitive | ~50 |  |
| Nc1nc2c(ncn2[C@@H]2O[C@H](COP(=O)(O)OP(=O)(O)OP(=O)(O)OP(=O)(O)OC[C@H]3O[C@@H](n4cnc5c(=O)[nH]c(N)nc54)[C@H](O)[C@@H]3O)[C@@H](O)[C@H]2O)c(=O)[nH]1 [diguanosine tetraphosphate, 5',5' diguanosine tetraphosphate] | more strongly |  | not competitive | ~50 |  |
| Nc1nc2c(ncn2[C@@H]2O[C@H](COP(=O)(O)OP(=O)(O)OP(=O)(O)O)[C@@H](O)[C@H]2O)c(=O)[nH]1 [GTP, guanosine triphosphate] | inhibited |  |  |  | inhibited |
